The results in this text go back to patent US20030224074A1, “Composition for the protection and regeneration of nerve cells containing the extract of Scutellaria Radix” (EUGENBIO INC., priority 2001, published 2003).

Entries after “also recorded” stand apart in the source; their conditions may differ.

One test concerns HiB5 cells. Briefly: Induction of differentiation of HiB5 neuronal stem cells (neurofilament immunostaining, confocal microscope). Format: cell-based, white rat. How it is done: A positive control group was treated with bFGF to induce the differentiation into nerve cells.
Cell culture medium was prepared by adding a mixture of 10% FBS (fetal bovine serum), penicillin/streptomycin, glutamine and sodium pyruvate (0.11 g/L) to DMEM. On differentiating at 39 C, another cell culture medium was prepared by adding pyruvate to a serum-free medium (N2, containing DMEM/F12, insulin, transferrin, Putreseine and BSA; Botten Stein & Sato., 1979).
Tissue sections were fixed with 4% paraformaldehyde and cryosected to a thickness of […]. The cryosected tissue sections were stained with nerve cell- or astrocyte-labeled antibody and FITC-labeled secondary antibody before examining under a confocal microscope. In order to stain with nerve cell-labeled antibody, cultured cells were fixed with 4% paraformaldehyde for 20 minutes, permeated in 0.5% NP-40 for 5 minutes, and blocked using 1% BSA solution for 30 minutes. […]
The cultured cells were immunostained with nerve cell-specific labeled molecule, and then neurite growth was observed under a confocal microscope. […] The differentiation degree was measured by double-staining neurites with nerve cell-specific labeled molecule (anti-neurofilament antibody) and FITC-labeled secondary antibody (green), followed by staining cell nuclei with propidium iodide (red).

Another test relates to SH-SY5Y. Briefly: Neurite regeneration in human neuroblastoma SH-SY5Y. The test is classed as cell-based. Conditions: extract 50 μg/ml, retinoic acid 50 μM. The method, then: Retinoic acid and NGF inducing neurite growth were used as positive control groups.
(§1) PC12 cells and SH-SY5Y cells were incubated in DMEM supplemented with 10% FBS. In order to differentiate the cells, NGF or retinoic acid was treated in a serum-free medium.
(§2) Retinoic acid (50 μM) and NGF (50 ng/ml) inducing neurite growth were used as positive controls.

The test system of a further test is PC12 cells. Briefly: Neurite regeneration and quantitative comparison of neurites in PC12 cell line. The test is classed as cell-based, rat. The settings on record: NGF 50 ng/ml, 3 days. How it is done: as §1, §2
Subsequently, the length of neurites in each group was measured.
2) Differentiation index was scored as follows: no neurite expression (0), the length of expressed neurites was less than the diameter of cell bodies (1), the length of expressed neurites was similar to the diameter of cell bodies (2), the length of expressed neurites was less than two times as long as the diameter of cell bodies (3), and the length of expressed neurites was more than two times as long as the diameter of cell bodies, or the expressed neurites form synapses together with other nerve cells (4). 200 differentiated cells from each microculture well were defined as one unit, and five units were statistically analyzed.

For the compound “bFGF: basic fibroblast growth factor, positive control inducing differentiation of HiB5 cells into nerve cells”, the cell survival result in the test on HiB5 cells (bFGF 20 ng/ml) is given as “increased”. Moreover, the “differentiation into nerve cells” value in the test on HiB5 cells (extract 50 μg/ml or bFGF 20 ng/ml) was “induced the differentiation into nerve cells; also recorded: differentiated into nerve cells”.

As to `CC1=C(/C=C/C(C)=C/C=C/C(C)=C/C(=O)O)C(C)(C)CCC1` [Retinoic acid], in the test on SH-SY5Y, the “Average (%) of differentiated cells” value is reported as 81.59%.

With “NGF: Nerve Growth Factor, positive control inducing neurite growth in PC12 cells”, the development of neurites entry in the test with PC12 cells is recorded as “development of neurites”.
